Reference: patent publication US20060099712A1, “Correlation of anti-cancer activity of dyes with redox potentials” (Eastman Kodak Company, priority 2004, published 2006)

Experiment: Electrochemical reduction potential (Er) measurement, SHACV / fast scan CV
Format: physicochemical
Settings: for Er: Table XIX, reduction potential vs. Ag/AgCl, in V (unit assumed)
Source text: In the practice of this invention the reduction potential of a given dye may be determined in various ways. If available, the published reduction potential may be employed. Reduction potentials for numerous cyanine and merocyanine dyes are available in the literature. (See J. Lenhard, Journal of Imaging Science, vol. 30 pp. 27-35 (1986).) A large amount of data has been generated on the reduction and oxidation potentials of these dyes from their use in photography and related arts where they are employed, inter alia, as spectral sensitizers.
If a published reduction potential is not available, suitable techniques for measuring reduction potential are available. Accurate electrochemical oxidation and reduction potentials for these organic dyes can be measured by the techniques of fast scan cyclic voltommetry (CV) or second harmonic ac voltommetry (SHACV). SHACV measurements are made as described by Lenhard in the Journal of Imaging Science volume 30, 1986 pp 27-35 using a commercially available (Princeton Applied Research Corp.) potentiostat in conjunction with voltage programmer, a conventional lock-in amplifier, and a low-distortion oscillator. The SHACV method utilizes an ac voltage waveform (of a frequency greater than or equal to 400 hz) that is superimposed on a DC potential ramp. On the other hand, the measurement of the oxidation or reduction potential by the CV method utilizes a (high frequency) triangular voltage waveform. The general procedures for measuring potentials by this method have been described by Wightman in Analytical Chemistry, 1984, vol. 56, pp524 and Journal of Physical Chemistry, 1984, vol. 88, pp3915. The specific application of this technique to the measurement of cyanine dye potentials has been reported by Nomura and Okazaki, Chemistry Letters, 1990, pp2231-2234. Commercial instrumentation especially designed for fast scan (i.e., high frequency) CV is available. It is noteworthy that because of the complicated nature of many of the cyanine dyes, electrochemical reactions, conventional slow scan cyclic voltommetry or polarography methods (as described by R. Large in Photographic Sensitivity, R. Cox, ed., Academic Press, New York, 1973, pp 241-263) provide only approximate values for oxidation and reduction potentials. Errors as large as 0.4 V from the true potential can be obtained by using slow scan CV or electrochemical methods.
The procedure for measuring the oxidation or reduction potential by the SHACV or fast scan CV method utilizes solutions of acetonitrile (or similar nonaqueous solvent) with added tetrabutylammonium tetrafluoroborate TBABF4 at a concentration of 0.1 M and ca. 5×10^−4 M of the cyanine, oxonol, or merocyanine dye. For measurement of the reduction potential the solution must be deaerated with argon prior to examination. The preferred working electrode is a Pt disk (ca. 0.02 cm^2) that is polished with 1 μm diamond paste, rinsed with water, and dried before each experiment. The reference electrode is a NaCl saturated calomel electrode. The cell and reference electrodes are maintained at 22 C. A value of 40 mV is added to the measured potentials to convert the number to that corresponding to an Ag/AgCl reference electrode. If a solvent other than acetonitrile is used then the measured potential must be referenced to a standard organic redox system such as ferrocene and corrected accordingly.
SHACV (Second Harmonic Alternating Current Voltametry) measurements are made as described by Lenhard in the Journal of Imaging Science volume 30, 1986 pp 27-35 using a commercially available (Princeton Applied Research Corp.) potentiostat in conjunction with voltage programmer, a conventional lock-in amplifier, and a low-distortion oscillator. The SHACV method utilizes an ac voltage waveform (of a frequency greater than or equal to 400 hz) that is superimposed on a DC potential ramp. […]

SMILES | ER(v), electrochemical reduction potential | Er
CCN1C(=CC=Cc2sc3cc4ccccc4cc3[n+]2CC)Sc2cc3ccccc3cc21 [AC-2] | −.920 V | 
COc1cccc2c1C(=O)c1c(O)c3c(c(O)c1C2=O)C[C@@](O)(C(=O)CO)C[C@@H]3O[C@H]1C[C@H](N)[C@H](O)[C@H](C)O1 [Adriamycin, reference compound] | −0.68 V | 
CCN1/C(=C/C=C/c2sc3ccccc3[n+]2CC)Sc2ccccc21.[I-] [Dye D-101] | −1.06 V | −1.060
CCN1/C(=C\C=C\C2=[N+](CC)c3ccccc3C2(C)C)C(C)(C)c2ccccc21 [Dye D-103] |  | −1.000
CCN1/C(=C/C=C/c2sc3cc4ccccc4cc3[n+]2CC)Sc2cc3ccccc3cc21 [Dye D-109] |  | −0.920
CCN1C(=CC=Cc2sc3cc4ccccc4nc3[n+]2CC)Sc2cc3ccccc3nc21 [Dye D-150] | −.808 V | −0.808
CCN1/C(=C/C=C/c2sc3cc4ccccc4cc3[n+]2CC)Sc2cc3ccccc3cc21 [Dye D-160] |  | −0.920
